The structures appear in SMILES notation.

IC50 data for five compounds are collected here from ChEMBL document CHEMBL1806351, “Synthesis of C-1 homologues of pancratistatin and their preliminary biological evaluation” (Bioorg Med Chem Lett, 2011).

Holding throughout (type): functional, cell-based
For one experiment, the system named is NCI-H460. The experiment is described as follows: Antiproliferative activity against human NCI-H460 cells assessed as viable cells after 48 hrs by MTT assay. The conditions noted are these: NCI-H460, 48 h.
In another experiment the test system is MCF7. The experiment is described as follows: Antiproliferative activity against human MCF7 cells assessed as viable cells after 48 hrs by MTT assay. The conditions noted are these: MCF7, 48 h.
The test system of the next experiment is DU-145. Briefly: Antiproliferative activity against human DU145 cells assessed as viable cells after 48 hrs by MTT assay. Conditions: DU-145, 48 h. In general terms: Formazan colour is commonly taken as a measure of viable cells.
The subject of the next experiment is BXPC-3. The experiment is described as follows: Antiproliferative activity against human BxPC3 cells assessed as viable cells after 48 hrs by MTT assay. Conditions: BXPC-3, 48 h.

Regarding `O=C1N[C@@H]2C(=C[C@H](O)[C@@H](O)[C@H]2O)c2cc3c(c(O)c21)OCO3` [NARCICLASINE], the IC50 is 0.04 µM with NCI-H460, 0.04 µM with MCF7, 0.05 µM in the experiment with DU-145 and 0.05 µM in the experiment on BXPC-3.

For `CC(=O)OC[C@H]1[C@H](O)[C@@H](O)[C@@H](O)[C@@H]2NC(=O)c3cc4c(cc3[C@@H]12)OCO4`, the IC50 in the experiment on NCI-H460 was 0.53 µM; in the experiment on MCF7, 1.81 µM; in the experiment on DU-145, 0.72 µM; with BXPC-3, 0.34 µM.

In the case of `CC(=O)OC[C@H]1[C@H](O)[C@@H](O)[C@@H](O)[C@@H]2NC(=O)c3c(cc4c(c3O)OCO4)[C@@H]12`, the half-maximal inhibitory concentration (IC50) came out at 0.07 µM with NCI-H460, 0.52 µM in the experiment on MCF7, 0.06 µM in the experiment with DU-145 and 0.07 µM with BXPC-3.

For the compound `O=C1N[C@H]2[C@H](O)[C@H](O)[C@@H](O)[C@H](CO)[C@@H]2c2cc3c(cc21)OCO3`, the concentration for half-maximal inhibition (IC50) with NCI-H460 turned out to be 0.4 µM; in the experiment with MCF7, 0.86 µM; in the experiment on DU-145, 1.1 µM; in the experiment on BXPC-3 it was 0.77 µM.

As for `O=C1N[C@H]2[C@H](O)[C@H](O)[C@@H](O)[C@H](CO)[C@@H]2c2cc3c(c(O)c21)OCO3`, the IC50 with NCI-H460 worked out at 0.09 µM; with MCF7, 0.24 µM; with DU-145 it was 0.09 µM; in the experiment on BXPC-3, 0.22 µM.

A word on the IC50: it is the concentration needed to halve the response being measured.
